Here are results for 26 molecules from US20200079758A1, “[4-(PHENYLSULFONYL)PIPERAZIN-1-YL](1H-1,2,3-TRIAZOL-4-YL)METHANONES” (priority 2016, published 2020).

The target of this test is T1, recombinant human AKR1C3 (Homo sapiens, UniProt P42330).
T1 construct: GST (cleaved yes); made in house; host or cells: E. coli
T1 sequence (P42330 1-323): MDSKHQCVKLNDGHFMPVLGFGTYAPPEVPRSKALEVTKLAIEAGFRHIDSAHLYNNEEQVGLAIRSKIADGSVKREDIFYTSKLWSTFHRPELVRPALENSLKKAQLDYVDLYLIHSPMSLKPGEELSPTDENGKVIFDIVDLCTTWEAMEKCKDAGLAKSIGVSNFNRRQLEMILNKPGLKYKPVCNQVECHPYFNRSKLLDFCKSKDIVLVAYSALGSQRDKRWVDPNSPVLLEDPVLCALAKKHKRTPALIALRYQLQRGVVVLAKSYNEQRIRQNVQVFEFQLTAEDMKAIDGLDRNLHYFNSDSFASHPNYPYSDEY
Description: AKR1C3-inhibitory activity assay (generation of Coumberol from Coumberone). Type of test: biochemical. To be noted: Coumberone 0.3 μM, NADPH 10 μM, 22° C., typically 90 min, average or median values. The procedure:
The AKR1C3-inhibitory activity of the substances of the present invention was measured in the AKR1C3 assay described in the paragraphs below.
Essentially, the enzyme activity is measured by quantification of the generation of Coumberol from Coumberone (Halim et al. J. AM. CHEM. SOC. 2008, 130:14123-14128 and Yee et al. Proc. Natl. Acad. Sci. USA 2006, 103:13304-13309). In this test, the increase of the highly fluorescent Coumberol by NADPH- (nicotinamide adenine dinucleotide phosphate)-dependent reduction of the non-fluorescent Coumberone by AKR1C3 was determined.
The enzyme used was recombinant human AKR1C3 (Aldo-keto reductase family 1 member C3; GenBank Accession No. NM_003739). This was expressed in E. coli as GST (glutathione S transferase) fusion protein and purified by glutathione Sepharose affinity chromatography. The GST was removed by digestion with thrombin and subsequent size exclusion chromatography (Dufort, I., Rheault, P., Huang, X F., Soucy, P., and Luu-The, V., Endocrinology 140, 568-574 (1999)).
For the assay, 50 nl of a 100-fold concentrated solution of the test substance in DMSO were pipetted into a black low-volume 384-well microtiter plate (Greiner Bio-One, Frickenhausen, Germany), 2.5 μl of a solution of AKR1C3 in assay buffer [50 mM potassium phosphate buffer pH 7, 1 mM DTT, 0.0022% (w/v) Pluronic F-127, 0.01% BSA (w/v) and protease inhibitor cocktail (Complete, EDTA-free Protease Inhibitor Cocktail from Roche)] were added and the mixture was incubated for 15 min to allow pre-binding of the substances to the enzyme prior to the enzyme reaction. The enzyme reaction was then started by addition of 2.5 μl of a solution of NADPH (20 μM→final concentration in 5 μl of assay volume is 10 μM) and Coumberone (0.6 μM→final concentration in 5 μl of assay volume is 0.3 μM) in assay buffer, and the resulting mixture was incubated at 22° C. for the reaction time of typically 90 min. The concentration of the AKR1C3 and the reaction time was adapted to the respective activity of the enzyme preparation and adjusted such that the assay was carried out in the linear range. Typical AKR1C3 concentrations were in the region of 1 nM. The reaction was stopped by addition of 2.5 μl of a stop solution consisting of 3 μM EM-1404 as inhibitor (U.S. Pat. No. 6,541,463) in 50 mM HEPES pH7.5 (3 μM EM-1404→final concentration in 7.5 μl of assay volume is 1 μM). The fluorescence of the Coumberole was then measured at 520 nm (excitation at 380 nm) using a suitable measuring instrument (Pherastar from BMG Labtechnologies). The intensity of the fluorescence was used as a measure of the amount of Coumberole formed and thus of the enzyme activity of AKR1C3. The data were normalized (enzyme reaction without inhibitor=0% inhibition; all other assay components, but no enzyme=100% inhibition).
As for `Cc1cccc(S(=O)(=O)N2CCN(C(=O)c3cnn[nH]3)CC2(C)C)c1` [Example 33, {3,3-dimethyl-4-[(3-methylphenyl)sulfonyl]piperazin-1-yl}(1H-1,2,3-triazol-5-yl)methanone], the IC50 was found to be 10 nM.
Under `C[C@@H]1CN(C(=O)c2c[nH]nn2)[C@@H](C)CN1S(=O)(=O)c1cccc(S(F)(F)(F)(F)F)c1` [Example 8, [(2S,5R)-2,5-dimethyl-4-{[3-(pentafluoro-λ^6-sulfanyl)phenyl]sulfonyl}piperazin-1-yl](1H-1,2,3-triazol-4-yl)methanone] stands 1 nM; under `CC1(C)CN(C(=O)c2cnn[nH]2)CCN1S(=O)(=O)c1ccc(C#N)cc1` [Example 120, 4-{[2,2-dimethyl-4-(1H-1,2,3-triazol-5-ylcarbonyl)piperazin-1-yl]sulfonyl}benzonitrile], 263 nM.
Under `C[C@@H]1CN(C(=O)c2c[nH]nn2)C[C@H](C)N1S(=O)(=O)c1ccccc1` [Example 38, [(3R,5S)-3,5-dimethyl-4-(phenylsulfonyl)piperazin-1-yl](1H-1,2,3-triazol-4-yl)methanone] stands 14 nM; under `COc1cc(C)ccc1S(=O)(=O)N1CCN(C(=O)c2cnn[nH]2)CC1(C)C` [Example 133, {4-[(2-methoxy-4-methylphenyl)sulfonyl]-3,3-dimethylpiperazin-1-yl}(1H-1,2,3-triazol-5-yl)methanone], 16 nM; under `C[C@@H]1CN(S(=O)(=O)c2cc(F)cc(F)c2)C[C@H](C)N1C(=O)c1c[nH]nn1` [Example 56, {(2R,6S)-4-[(3,5-difluorophenyl)sulfonyl]-2,6-dimethylpiperazin-1-yl}(1H-1,2,3-triazol-4-yl)methanone], 13 nM.
The value for `Cc1cccc(S(=O)(=O)N2C[C@@H](C)N(C(=O)c3c[nH]nn3)[C@@H](C)C2)c1` [Example 49, {(2R,6S)-2,6-dimethyl-4-[(3-methylphenyl)sulfonyl]piperazin-1-yl}(1H-1,2,3-triazol-4-yl)methanone] was 6 nM; that for `CC1(C)CN(C(=O)c2cnn[nH]2)CCN1S(=O)(=O)c1ccc2nsnc2c1` [Example 125, [4-(2,1,3-benzothiadiazol-5-ylsulfonyl)-3,3-dimethylpiperazin-1-yl](1H-1,2,3-triazol-5-yl)methanone] was 25 nM; that for `CC1(C)CN(C(=O)c2cnn[nH]2)CCN1S(=O)(=O)c1ccc(Cl)cc1` [Example 110, {4-[(4-chlorophenyl)sulfonyl]-3,3-dimethylpiperazin-1-yl}(1H-1,2,3-triazol-5-yl)methanone] was 5 nM.
Regarding `COc1ccc(S(=O)(=O)N2C[C@@H](C)N(C(=O)c3cnn[nH]3)[C@@H](C)C2)cc1` [Example 97, {(2R,6S)-4-[(4-methoxyphenyl)sulfonyl]-2,6-dimethylpiperazin-1-yl}(1H-1,2,3-triazol-5-yl)methanone], the IC50 came to 151 nM.
Under `C[C@@H]1CN(S(=O)(=O)c2ccccc2Br)C[C@H](C)N1C(=O)c1cnn[nH]1` [Example 102, {(2R,6S)-4-[(2-bromophenyl)sulfonyl]-2,6-dimethylpiperazin-1-yl}(1H-1,2,3-triazol-5-yl)methanone] stands 1 nM.
For the molecule `CC1(C)CN(C(=O)c2cnn[nH]2)CCN1S(=O)(=O)c1ccc(Cl)c(Cl)c1` [Example 116, {4-[(3,4-dichlorophenyl)sulfonyl]-3,3-dimethylpiperazin-1-yl}(1H-1,2,3-triazol-5-yl)methanone], the 50% inhibitory concentration (IC50) came out at 2 nM.
On to `CC1(C)CN(C(=O)c2c[nH]nn2)CCN1S(=O)(=O)c1ccccc1C(F)(F)F` [Example 27, (3,3-dimethyl-4-{[2-(trifluoromethyl)phenyl]sulfonyl}piperazin-1-yl)(1H-1,2,3-triazol-4-yl)methanone], for which the IC50 was 7 nM.
For `C[C@@H]1CN(S(=O)(=O)c2ccc(F)cc2)C[C@H](C)N1C(=O)c1c[nH]nn1` [Example 44, {(2R,6S)-4-[(4-fluorophenyl)sulfonyl]-2,6-dimethylpiperazin-1-yl}(1H-1,2,3-triazol-4-yl)methanone], the IC50 was determined as 48 nM.
The value for `Cc1ccc(C)c(S(=O)(=O)N2C[C@H](C)N(C(=O)c3cnn[nH]3)C[C@H]2C)c1` [Example 70, {(2S,5R)-4-[(2,5-dimethylphenyl)sulfonyl]-2,5-dimethylpiperazin-1-yl}(1H-1,2,3-triazol-5-yl)methanone] was 1 nM; that for `CC1(C)CN(C(=O)c2c[nH]nn2)CCN1S(=O)(=O)c1cccc(Br)c1` [Example 23, {4-[(3-bromophenyl)sulfonyl]-3,3-dimethylpiperazin-1-yl}(1H-1,2,3-triazol-4-yl)methanone] was 2 nM; that for `C[C@@H]1CN(C(=O)c2c[nH]nn2)[C@@H](C)CN1S(=O)(=O)c1cccc(C(F)(F)F)c1` [Example 12, [(2S,5R)-2,5-dimethyl-4-{[3-(trifluoromethyl)phenyl]sulfonyl}piperazin-1-yl](1H-1,2,3-triazol-4-yl)methanone] was 1 nM.
Under `C[C@@H]1CN(C(=O)c2c[nH]nn2)[C@@H](C)CN1S(=O)(=O)c1cccnc1` [Example 11, [(2S,5R)-2,5-dimethyl-4-(pyridin-3-ylsulfonyl)piperazin-1-yl](1H-1,2,3-triazol-5-yl)methanone] stands 77 nM.
In the case of `C[C@@H]1CN(S(=O)(=O)c2ccccc2-c2ccccc2)C[C@H](C)N1C(=O)c1cnn[nH]1` [Example 107, [(2R,6S)-4-(biphenyl-2-ylsulfonyl)-2,6-dimethylpiperazin-1-yl](1H-1,2,3-triazol-5-yl)methanone], the IC50 is 245 nM.
Take `CC1(C)CN(C(=O)c2cnn[nH]2)CCN1S(=O)(=O)c1ccc(F)c(F)c1F` [Example 126, {3,3-dimethyl-4-[(2,3,4-trifluorophenyl)sulfonyl]piperazin-1-yl}(1H-1,2,3-triazol-5-yl)methanone]: the IC50 came out at 46 nM.
The value for `CC1(C)CN(C(=O)c2cnn[nH]2)CCN1S(=O)(=O)c1c(Cl)cc(Cl)cc1Cl` [Example 123, {3,3-dimethyl-4-[(2,4,6-trichlorophenyl)sulfonyl]piperazin-1-yl}(1H-1,2,3-triazol-5-yl)methanone] was 12 nM; that for `CC1(C)CN(C(=O)c2cnn[nH]2)CCN1S(=O)(=O)c1ccccc1F` [Example 34, {4-[(2-fluorophenyl)sulfonyl]-3,3-dimethylpiperazin-1-yl}(1H-1,2,3-triazol-5-yl)methanone] was 16 nM; that for `C[C@@H]1CN(C(=O)c2cnn[nH]2)[C@@H](C)CN1S(=O)(=O)c1ccccc1-c1ccccc1` [Example 86, [(2S,5R)-4-(biphenyl-2-ylsulfonyl)-2,5-dimethylpiperazin-1-yl](1H-1,2,3-triazol-5-yl)methanone] was 32 nM.
As to `C[C@@H]1CN(C(=O)c2cnn[nH]2)[C@@H](C)CN1S(=O)(=O)Cc1ccccc1` [Example 64, [(2S,5R)-4-(benzylsulfonyl)-2,5-dimethylpiperazin-1-yl](1H-1,2,3-triazol-5-yl)methanone], the IC50 stood at 114 nM.
Under `COc1cccc(S(=O)(=O)N2C[C@@H](C)N(C(=O)c3cnn[nH]3)[C@@H](C)C2)c1` [Example 108, {(2R,6S)-4-[(3-methoxyphenyl)sulfonyl]-2,6-dimethylpiperazin-1-yl}(1H-1,2,3-triazol-5-yl)methanone] stands 40 nM; under `CC1(C)CN(C(=O)c2c[nH]nn2)CCN1S(=O)(=O)c1cccc(F)c1` [Example 20, {4-[(3-fluorophenyl)sulfonyl]-3,3-dimethylpiperazin-1-yl}(1H-1,2,3-triazol-4-yl)methanone], 11 nM.

For orientation: IC50 means the concentration at which inhibition is half-maximal.
